Data taken from ChEMBL document CHEMBL1201862, “PubChem BioAssay data set” (2004).
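How tested: cells in 96-well plates exposed to compound for 48 hours at five concentrations. GI50 is the concentration that inhibits growth by half.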 Active and inactive are the calls of the source. Cut-off read from the data, not from the text of the source: active = GI50 up to about 1.1 µM and inactive = higher.

Assays:
Assay in all cases: NCI-60 cell line screen, 48 h
[1] = system: Hs-578T
[2] = system: A498
[3] = system: KM12
[4] = system: K562
[5] = system: RPMI-8226
[6] = system: TK-10
[7] = system: SK-MEL-5
[8] = system: A549
[9] = system: OVCAR-4
[10] = system: SF-268
[11] = system: PC-3
[12] = system: HOP-62
[13] = system: HCC 2998
[14] = system: MDA-MB-435
[15] = system: OVCAR-5
[16] = system: LOX IMVI
[17] = system: IGROV-1
[18] = system: NCI-H522
[19] = system: SW-620
[20] = system: OVCAR-8

NC(=O)c1cc(N(CCO)CCO)c([N+](=O)[O-])cc1[N+](=O)[O-]
GI50 [1]: > 100 µM (inactive)
GI50 [2]: > 100 µM (inactive)
GI50 [3]: > 100 µM (inactive)
GI50 [4]: > 100 µM (inactive)
GI50 [5]: > 100 µM (inactive)
GI50 [6]: > 100 µM (inactive)
GI50 [7]: > 100 µM (inactive)
GI50 [8]: > 100 µM (inactive)
GI50 [9]: > 100 µM (inactive)
GI50 [10]: > 100 µM (inactive)
GI50 [11]: > 100 µM (inactive)
GI50 [12]: > 100 µM (inactive)
GI50 [13]: > 100 µM (inactive)
GI50 [14]: > 100 µM (inactive)
GI50 [15]: > 100 µM (inactive)
GI50 [16]: > 100 µM (inactive)
GI50 [17]: > 100 µM (inactive)
GI50 [18]: > 100 µM (inactive)
GI50 [19]: > 100 µM (inactive)

COc1c(O)ccc2c1CN1CCc3cc4c(cc3C1C2)OCO4 (centres undefined)
GI50 [1]: 27.4 µM (inactive)
GI50 [2]: 20.8 µM (inactive)
GI50 [3]: 22.1 µM (inactive)
GI50 [4]: 20 µM (inactive)
GI50 [5]: 32.4 µM (inactive)
GI50 [6]: 28.9 µM (inactive)
GI50 [7]: 35 µM (inactive)
GI50 [8]: 32.5 µM (inactive)
GI50 [9]: 23.1 µM (inactive)
GI50 [10]: 37 µM (inactive)
GI50 [20]: 33.9 µM (inactive)
GI50 [11]: 23.4 µM (inactive)
GI50 [12]: 36.4 µM (inactive)
GI50 [13]: 31.6 µM (inactive)
GI50 [14]: 21.8 µM (inactive)
GI50 [15]: > 65.5 µM (inactive)
GI50 [16]: 22.8 µM (inactive)
GI50 [17]: 28.6 µM (inactive)
GI50 [18]: 7.43 µM (inactive)
GI50 [19]: 29.9 µM (inactive)

O=[N+]([O-])c1ccc(C2=Nn3c(nnc3-c3ccc(Cl)cc3)SC2)o1
GI50 [1]: 5.83 µM (inactive)
GI50 [2]: 16.9 µM (inactive)
GI50 [3]: 7.93 µM (inactive)
GI50 [4]: 2.16 µM (inactive)
GI50 [5]: 2.1 µM (inactive)
GI50 [6]: 14.9 µM (inactive)
GI50 [7]: 10.8 µM (inactive)
GI50 [8]: 14.3 µM (inactive)
GI50 [9]: 3.11 µM (inactive)
GI50 [10]: 10.8 µM (inactive)
GI50 [20]: 9.91 µM (inactive)
GI50 [11]: 5.32 µM (inactive)
GI50 [12]: 9.12 µM (inactive)
GI50 [13]: 2.39 µM (inactive)
GI50 [14]: 2.08 µM (inactive)
GI50 [15]: 18.3 µM (inactive)
GI50 [16]: 3.93 µM (inactive)
GI50 [17]: 6 µM (inactive)
GI50 [18]: 0.923 µM (active)
GI50 [19]: 2.37 µM (inactive)

O=c1[nH]c2nccnc2c2c([N+](=O)[O-])cccc12
GI50 [1]: 55.5 µM (inactive)
GI50 [2]: > 100 µM (inactive)
GI50 [3]: > 100 µM (inactive)
GI50 [4]: > 100 µM (inactive)
GI50 [5]: > 100 µM (inactive)
GI50 [6]: 81.8 µM (inactive)
GI50 [7]: 88.3 µM (inactive)
GI50 [8]: > 100 µM (inactive)
GI50 [9]: > 100 µM (inactive)
GI50 [10]: > 100 µM (inactive)
GI50 [20]: > 100 µM (inactive)
GI50 [11]: 78.9 µM (inactive)
GI50 [12]: > 100 µM (inactive)
GI50 [13]: > 100 µM (inactive)
GI50 [14]: > 100 µM (inactive)
GI50 [15]: > 100 µM (inactive)
GI50 [16]: 81.8 µM (inactive)
GI50 [17]: > 100 µM (inactive)
GI50 [18]: 49.9 µM (inactive)
GI50 [19]: > 100 µM (inactive)

CSC(=S)Nc1cccc(C)n1
GI50 [1]: > 100 µM (inactive)
GI50 [2]: > 100 µM (inactive)
GI50 [3]: > 100 µM (inactive)
GI50 [4]: > 100 µM (inactive)
GI50 [5]: > 100 µM (inactive)
GI50 [6]: > 100 µM (inactive)
GI50 [7]: 76.6 µM (inactive)
GI50 [8]: > 100 µM (inactive)
GI50 [9]: > 100 µM (inactive)
GI50 [10]: > 100 µM (inactive)
GI50 [20]: > 100 µM (inactive)
GI50 [11]: > 100 µM (inactive)
GI50 [12]: > 100 µM (inactive)
GI50 [13]: > 100 µM (inactive)
GI50 [14]: > 100 µM (inactive)
GI50 [15]: > 100 µM (inactive)
GI50 [16]: > 100 µM (inactive)
GI50 [17]: > 100 µM (inactive)
GI50 [18]: > 100 µM (inactive)
GI50 [19]: > 100 µM (inactive)

CNC1Cc2c[nH]c3cccc(c23)C12C=C(C)C(=O)O2 (centres undefined)
GI50 [1]: > 100 µM (inactive)
GI50 [2]: > 100 µM (inactive)
GI50 [3]: > 100 µM (inactive)
GI50 [4]: > 100 µM (inactive)
GI50 [5]: > 100 µM (inactive)
GI50 [6]: > 100 µM (inactive)
GI50 [7]: > 100 µM (inactive)
GI50 [8]: > 100 µM (inactive)
GI50 [9]: > 100 µM (inactive)
GI50 [10]: > 100 µM (inactive)
GI50 [20]: > 100 µM (inactive)
GI50 [11]: > 100 µM (inactive)
GI50 [12]: > 100 µM (inactive)
GI50 [13]: > 100 µM (inactive)
GI50 [14]: > 100 µM (inactive)
GI50 [15]: > 100 µM (inactive)
GI50 [16]: > 100 µM (inactive)
GI50 [17]: > 100 µM (inactive)
GI50 [18]: > 100 µM (inactive)
GI50 [19]: > 100 µM (inactive)

COc1cc(CNC(=O)CCCCCCCCCCSSCCCCCCCCCCC(=O)NCc2ccc(O)c(OC)c2)ccc1O
GI50 [1]: > 10 µM (inactive)
GI50 [2]: > 10 µM (inactive)
GI50 [3]: > 10 µM (inactive)
GI50 [4]: > 10 µM (inactive)
GI50 [5]: > 10 µM (inactive)
GI50 [6]: > 10 µM (inactive)
GI50 [7]: > 10 µM (inactive)
GI50 [8]: > 10 µM (inactive)
GI50 [9]: > 10 µM (inactive)
GI50 [10]: > 10 µM (inactive)
GI50 [20]: > 10 µM (inactive)
GI50 [11]: > 10 µM (inactive)
GI50 [12]: > 10 µM (inactive)
GI50 [13]: > 10 µM (inactive)
GI50 [14]: > 10 µM (inactive)
GI50 [15]: > 10 µM (inactive)
GI50 [16]: > 10 µM (inactive)
GI50 [17]: > 10 µM (inactive)
GI50 [18]: 0.918 µM (active)
GI50 [19]: > 10 µM (inactive)
